The text below walks through data of patent publication US20120172340A1, “Compositions and Methods for Selectively Activating Human Sirtuins” (BIOMOL International L.P., priority 2004, published 2012).

The structures appear in SMILES notation. Positions count from the first letter of the chain named.

Assay [1] has as its target T1, human SIRT1 (Homo sapiens, UniProt Q96EB6).
T1 construct: made in house; host or cells: E. coli
T1 sequence (Q96EB6 1-747): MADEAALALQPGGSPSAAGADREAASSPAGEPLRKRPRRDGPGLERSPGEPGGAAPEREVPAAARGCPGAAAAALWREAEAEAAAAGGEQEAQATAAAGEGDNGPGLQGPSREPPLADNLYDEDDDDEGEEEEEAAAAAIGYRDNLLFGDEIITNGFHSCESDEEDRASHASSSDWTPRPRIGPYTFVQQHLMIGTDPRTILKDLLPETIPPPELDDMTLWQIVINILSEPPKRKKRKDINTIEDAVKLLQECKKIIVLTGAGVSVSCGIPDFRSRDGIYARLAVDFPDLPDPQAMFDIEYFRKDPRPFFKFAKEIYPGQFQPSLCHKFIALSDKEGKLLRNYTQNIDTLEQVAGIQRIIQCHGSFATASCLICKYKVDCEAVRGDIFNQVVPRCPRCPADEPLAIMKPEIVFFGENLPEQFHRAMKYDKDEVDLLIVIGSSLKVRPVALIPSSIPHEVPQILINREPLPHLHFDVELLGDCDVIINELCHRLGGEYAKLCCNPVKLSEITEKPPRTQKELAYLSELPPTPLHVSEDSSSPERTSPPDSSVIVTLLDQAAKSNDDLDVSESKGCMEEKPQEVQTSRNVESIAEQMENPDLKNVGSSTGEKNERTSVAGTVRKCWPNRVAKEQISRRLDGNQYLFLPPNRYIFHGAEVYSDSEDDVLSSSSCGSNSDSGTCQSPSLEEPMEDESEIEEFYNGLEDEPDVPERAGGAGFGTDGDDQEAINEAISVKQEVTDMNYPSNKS
The experiment in a line: SIRT1 rate measurement, fluorogenic p53-382 peptide deacetylation. It counts as biochemical. Particulars: for SIRT1 Ratio to Control Rates Mean ± SE Compounds at 100 μM: 100 μM test compounds, 25 μM p53-382 peptide.

The target of assay [2] is T2, human SIRT5 (Homo sapiens, UniProt Q9NXA8).
T2 sequence (Q9NXA8 37-310): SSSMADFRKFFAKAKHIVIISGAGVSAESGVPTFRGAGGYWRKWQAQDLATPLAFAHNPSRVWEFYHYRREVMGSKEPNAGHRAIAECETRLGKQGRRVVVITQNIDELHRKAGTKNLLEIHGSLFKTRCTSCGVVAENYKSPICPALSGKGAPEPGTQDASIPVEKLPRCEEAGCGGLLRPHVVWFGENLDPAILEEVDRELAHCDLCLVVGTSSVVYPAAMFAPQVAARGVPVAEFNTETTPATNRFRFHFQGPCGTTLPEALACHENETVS
The experiment in a line: SIRT5 rate measurement, fluorogenic p53-382 peptide deacetylation. It counts as biochemical. Details: His6 (histidine tag, 2.5 kDa) (N); made in house; host or cells: E. coli. Particulars: for SIRT5 Ratio of Control Rates Mean ± SE Compounds at 200 μM: 200 μM test compounds, 500 μM NAD+, 100 μM p53-382 peptide; for relative activation of SIRT5 versus SIRT1 (in words): comparison of Table 2 SIRT5 and SIRT1 data.

Assay [3] addresses T3, E230K mutant SIRT1 (Homo sapiens, UniProt Q96EB6, E230K).
T3 construct: made in house; host or cells: E. coli
T3 sequence (Q96EB6 1-747 E230K): T1 sequence (Q96EB6 1-747) with E230K
As to the kind of experiment: Resveratrol dose-response, fluorogenic deacetylation, E230K mutant SIRT1. The format is biochemical. Particulars: 37° C., 25 μM NAD+, 25 μM p53-382; FIG. 1A.

For assay [4], the target named is T4, ySir2 (Saccharomyces cerevisiae, UniProt P06700).
T4 construct: made in house; host or cells: E. coli
T4 sequence (P06700 whole entry): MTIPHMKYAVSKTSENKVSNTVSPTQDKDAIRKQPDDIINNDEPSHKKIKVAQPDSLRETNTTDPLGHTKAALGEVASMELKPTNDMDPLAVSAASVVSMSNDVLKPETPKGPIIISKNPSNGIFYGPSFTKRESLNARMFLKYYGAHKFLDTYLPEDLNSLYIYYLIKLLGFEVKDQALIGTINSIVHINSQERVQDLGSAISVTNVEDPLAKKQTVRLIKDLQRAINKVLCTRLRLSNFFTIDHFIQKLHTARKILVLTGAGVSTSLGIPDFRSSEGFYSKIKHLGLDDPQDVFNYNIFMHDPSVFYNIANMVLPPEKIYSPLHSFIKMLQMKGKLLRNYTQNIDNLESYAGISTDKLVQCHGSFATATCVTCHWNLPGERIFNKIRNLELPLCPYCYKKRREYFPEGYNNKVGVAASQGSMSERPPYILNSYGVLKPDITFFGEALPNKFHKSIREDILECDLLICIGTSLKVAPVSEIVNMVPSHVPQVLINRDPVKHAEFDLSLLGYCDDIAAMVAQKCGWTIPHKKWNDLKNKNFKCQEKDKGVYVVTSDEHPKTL
The experiment in a line: Resveratrol dose-response, fluorogenic deacetylation, ySir2. Conditions: 30° C., 200 μM NAD+, 200 μM p53-382; FIG. 1. It counts as biochemical, S. cerevisiae (budding yeast).

The target in assay [5] is T5, SIRT5Δ1-39 (Homo sapiens, UniProt Q9NXA8).
T5 construct: in which the first 39 residues were deleted (SIRT5Δ1-39); made in house
T5 sequence (Q9NXA8 40-310): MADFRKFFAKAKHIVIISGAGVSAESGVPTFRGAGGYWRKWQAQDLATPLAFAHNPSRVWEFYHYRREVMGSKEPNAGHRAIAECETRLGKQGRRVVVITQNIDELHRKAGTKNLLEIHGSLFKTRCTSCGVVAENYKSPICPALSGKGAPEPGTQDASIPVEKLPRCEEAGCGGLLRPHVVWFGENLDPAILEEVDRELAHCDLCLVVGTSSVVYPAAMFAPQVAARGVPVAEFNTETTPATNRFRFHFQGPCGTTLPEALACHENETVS
As to the kind of experiment: Deacetylation activity of N-terminally truncated SIRT5. The format is biochemical. Particulars: 500 μM resveratrol; 1 mM p53-382 peptide, 12 mM NAD+; compared with full-length SIRT5.

Assay [6] has as its target T2, human SIRT5. Particulars: 500 μM resveratrol; saturating NAD+ (12 mM).
Assay [7] has as its target T6, human SIRT3 (Homo sapiens, UniProt Q9NTG7).
T6 construct: made in house; host or cells: E. coli
T6 sequence (Q9NTG7 1-399): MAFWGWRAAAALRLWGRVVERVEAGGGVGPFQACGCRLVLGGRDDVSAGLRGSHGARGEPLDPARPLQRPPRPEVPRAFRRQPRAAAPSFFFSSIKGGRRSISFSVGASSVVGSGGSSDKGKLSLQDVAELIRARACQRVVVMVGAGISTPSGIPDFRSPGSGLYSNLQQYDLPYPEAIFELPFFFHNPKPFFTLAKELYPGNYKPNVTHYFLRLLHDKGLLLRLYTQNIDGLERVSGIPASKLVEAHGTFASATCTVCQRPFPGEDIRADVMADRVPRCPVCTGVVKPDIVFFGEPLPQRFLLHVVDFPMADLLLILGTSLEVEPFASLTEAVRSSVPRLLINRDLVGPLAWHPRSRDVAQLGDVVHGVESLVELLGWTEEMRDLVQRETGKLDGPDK
The experiment in a line: Resveratrol dose-response, fluorogenic deacetylation, SIRT3. The format is biochemical. Conditions: 37° C., 25 μM NAD+, 25 μM p53-320; FIG. 1.

In assay [8] the target is T7, dSir2 (Drosophila melanogaster, UniProt Q9VK34, DEL53-54/DUP289-290/L518H/P746H/V753F).
T7 construct: made in house; host or cells: E. coli
T7 sequence (Q9VK34 other isoform, or with tags, fused parts or gaps DEL53-54/DUP289-290/L518H/P746H/V753F): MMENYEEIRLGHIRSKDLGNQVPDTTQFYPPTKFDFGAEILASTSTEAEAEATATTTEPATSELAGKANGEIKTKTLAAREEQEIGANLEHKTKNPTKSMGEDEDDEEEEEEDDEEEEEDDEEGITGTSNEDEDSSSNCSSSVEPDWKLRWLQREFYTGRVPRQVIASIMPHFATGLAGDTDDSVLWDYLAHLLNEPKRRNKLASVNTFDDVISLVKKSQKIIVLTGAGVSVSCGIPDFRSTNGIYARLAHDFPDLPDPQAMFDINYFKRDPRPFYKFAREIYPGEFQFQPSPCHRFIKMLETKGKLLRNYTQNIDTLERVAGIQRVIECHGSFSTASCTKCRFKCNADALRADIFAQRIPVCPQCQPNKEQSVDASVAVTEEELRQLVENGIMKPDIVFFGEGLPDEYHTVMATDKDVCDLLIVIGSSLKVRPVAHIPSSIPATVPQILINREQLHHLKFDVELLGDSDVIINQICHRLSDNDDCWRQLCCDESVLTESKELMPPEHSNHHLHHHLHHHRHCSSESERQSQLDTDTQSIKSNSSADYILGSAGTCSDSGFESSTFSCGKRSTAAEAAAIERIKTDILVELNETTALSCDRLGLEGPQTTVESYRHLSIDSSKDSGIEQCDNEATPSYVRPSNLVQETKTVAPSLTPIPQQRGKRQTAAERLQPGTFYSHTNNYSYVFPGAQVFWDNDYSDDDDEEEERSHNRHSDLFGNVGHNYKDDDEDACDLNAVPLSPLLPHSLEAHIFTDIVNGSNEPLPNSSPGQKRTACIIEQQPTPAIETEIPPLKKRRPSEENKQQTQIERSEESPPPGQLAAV
The experiment in a line: Resveratrol dose-response, fluorogenic deacetylation, dSir2. Conditions: 25° C., 50 μM NAD+, 50 μM Fluor de Lys acetylated lysine substrate; FIG. 1. The format is biochemical, D. melanogaster.

For `O=c1c(O)c(-c2ccc(O)c(O)c2)oc2cc(O)cc(O)c12` [Quercetin, 3,5,7,3′,4′-Pentahydroxyflavone], the “SIRT1 Ratio to Control Rates Mean ± SE Compounds at 100 μM” value in assay [1] (25 μM NAD+) came to 4.59 ± 0.47. Moreover, in assay [2], the “SIRT5 Ratio of Control Rates Mean ± SE Compounds at 200 μM” value is reported as 2.18 ± 0.10 and the “relative activation of SIRT5 versus SIRT1 (in words)” value is given as “relatively less potent SIRT5 activation”.

`Oc1ccc(/C=C/c2cc(O)cc(O)c2)cc1` [Resveratrol, 3,5,4′-Trihydroxy-trans-stilbene]: in assay [1] (37° C., 25 μM NAD+, 25 μM p53-382, FIG. 1), the “resveratrol-dependent rate increase, human SIRT1” value is “rate increases are seen”. The “resveratrol concentration at which maximum rate stimulation occurred, SIRT1” value in assay [1] (FIG. 1A) is above 100 µM. Also, in assay [3], the “resveratrol activation of E230K mutant SIRT1” value is given as “diminished resveratrol activation”. For the same compound, the “resveratrol-dependent rate increase, ySir2” value in assay [4] was “rate increases are seen”. Also, in assay [5], the “stimulation of SIRT5Δ1-39 deacetylation activity” value was “similarly stimulated”. Besides, in assay [6], the “lowering of the Km for the p53-382 peptide” value is “more than ten-fold”. Moreover, in assay [7], the “resveratrol-dependent rate increase, human SIRT3” value is recorded as “not”. Moreover, the “resveratrol-dependent rate increase, dSir2” value in assay [8] was “rate increases are seen”.

As for `Cc1ccc(NC(=O)c2cccc(N(C)C)c2)cc1NC(=O)c1ccc(O)cc1` [ZM 336372, N-[5-(3-dimethylaminobenzamido)-2-methylphenyl]-4-hydroxybenzamide], in assay [1] (25 μM NAD+), the “SIRT1 Ratio to Control Rates Mean ± SE Compounds at 100 μM” value is listed as 3.5 ± 1.1. In assay [2], the “identified as human SIRT5 inhibitor” value was “SIRT5 inhibitors”, the “SIRT5 Ratio of Control Rates Mean ± SE Compounds at 200 μM” value came to 0.74 ± 0.05 and the “relative activation of SIRT5 versus SIRT1 (in words)” value is listed as “selective activators of SIRT1 as compared to SIRT5”.
